Data on 20 molecules can be found in ChEMBL document CHEMBL1136174, “Synthesis and antimycobacterial activity of capuramycin analogues. Part 1: substitution of the azepan-2-one moiety of capuramycin” (Bioorg Med Chem Lett, 2003).

Structures are written as SMILES. pIC50: −log10 of the molar value. Converted amounts (≈) assume the structure as drawn.

For one experiment, the system named is Mycolicibacterium smegmatis. Kind of experiment: Antimycobacterial activity against Mycobacterium smegmatis (SANK 75075). The class given is functional.
With `CCCCCCCCCCNC(=O)C1=C[C@H](O)[C@H](O)[C@@H](O[C@@H](C(N)=O)[C@H]2O[C@@H](n3ccc(=O)[nH]c3=O)[C@H](O)[C@@H]2OC)O1`, the MIC was 25 µg/mL (≈ 41.8 µM).
The same measure, in the same setting: to `COc1cc(CNC(=O)C2=C[C@H](O)[C@H](O)[C@@H](O[C@@H](C(N)=O)[C@H]3O[C@@H](n4ccc(=O)[nH]c4=O)[C@H](O)[C@@H]3OC)O2)cc(OC)c1OC` belongs above 100 µg/mL; to `CO[C@H]1[C@@H](O)[C@H](n2ccc(=O)[nH]c2=O)O[C@@H]1[C@@H](O[C@H]1OC(C(=O)Nc2ccc([N+](=O)[O-])cc2)=C[C@H](O)[C@@H]1O)C(N)=O`, 25 µg/mL (≈ 43.1 µM).
Regarding `CO[C@H]1[C@@H](O)[C@H](n2ccc(=O)[nH]c2=O)O[C@@H]1[C@@H](O[C@H]1OC(C(=O)Nc2nncs2)=C[C@H](O)[C@@H]1O)C(N)=O`, the MIC is above 100 µg/mL.
Still for that read-out and setting: to `CCc1ccccc1NC(=O)C1=C[C@H](O)[C@H](O)[C@@H](O[C@@H](C(N)=O)[C@H]2O[C@@H](n3ccc(=O)[nH]c3=O)[C@H](O)[C@@H]2OC)O1` belongs 50 µg/mL (≈ 88.9 µM); to `CO[C@H]1[C@@H](O)[C@H](n2ccc(=O)[nH]c2=O)O[C@@H]1[C@@H](O[C@H]1OC(C(=O)Nc2nc(C(C)(C)C)cs2)=C[C@H](O)[C@@H]1O)C(N)=O`, 100 µg/mL (≈ 167 µM).
Consider `CO[C@H]1[C@@H](O)[C@H](n2ccc(=O)[nH]c2=O)O[C@@H]1[C@@H](O[C@H]1OC(C(=O)NCCc2ccc(Cl)cc2)=C[C@H](O)[C@@H]1O)C(N)=O`, for which the MIC came out at 25 µg/mL (≈ 41.9 µM).
Molecule `CO[C@H]1[C@@H](O)[C@H](n2ccc(=O)[nH]c2=O)O[C@@H]1[C@@H](O[C@H]1OC(C(=O)NCC(c2ccccc2)c2ccccc2)=C[C@H](O)[C@@H]1O)C(N)=O` registered an MIC above 100 µg/mL.
For the molecule `CO[C@H]1[C@@H](O)[C@H](n2ccc(=O)[nH]c2=O)O[C@@H]1[C@@H](O[C@H]1OC(C(=O)NCCN)=C[C@H](O)[C@@H]1O)C(N)=O`, it took 100 µg/mL (≈ 199 µM) to inhibit growth (MIC).
The same measure, in the same setting: next, `CO[C@H]1[C@@H](O)[C@H](n2ccc(=O)[nH]c2=O)O[C@@H]1[C@@H](O[C@H]1OC(C(=O)NCCc2cccc(Cl)c2)=C[C@H](O)[C@@H]1O)C(N)=O`: 12.5 µg/mL (≈ 20.9 µM).
`CO[C@H]1[C@@H](O)[C@H](n2ccc(=O)[nH]c2=O)O[C@@H]1[C@@H](O[C@H]1OC(C(=O)NCCCSC)=C[C@H](O)[C@@H]1O)C(N)=O` registered an MIC of 50 µg/mL (≈ 91.5 µM).
Same read-out and setting: next, `COc1ccc(CCNC(=O)C2=C[C@H](O)[C@H](O)[C@@H](O[C@@H](C(N)=O)[C@H]3O[C@@H](n4ccc(=O)[nH]c4=O)[C@H](O)[C@@H]3OC)O2)cc1OC`: 50 µg/mL (≈ 80.3 µM).
As to `CO[C@H]1[C@@H](O)[C@H](n2ccc(=O)[nH]c2=O)O[C@@H]1[C@@H](O[C@H]1OC(C(=O)Nc2nccs2)=C[C@H](O)[C@@H]1O)C(N)=O`, 25 µg/mL (≈ 46.2 µM) was the least that counted as inhibitory (MIC).
`CO[C@H]1[C@@H](O)[C@H](n2ccc(=O)[nH]c2=O)O[C@@H]1[C@@H](O[C@H]1OC(C(=O)NC2CCCCCC2)=C[C@H](O)[C@@H]1O)C(N)=O` gave an MIC of 25 µg/mL (≈ 45.1 µM).
`CO[C@H]1[C@@H](O)[C@H](n2ccc(=O)[nH]c2=O)O[C@@H]1[C@@H](O[C@H]1OC(C(=O)NC2CCCCC2)=C[C@H](O)[C@@H]1O)C(N)=O` displayed an MIC of 12.5 µg/mL (≈ 23.1 µM).
Regarding `COc1ccccc1NC(=O)C1=C[C@H](O)[C@H](O)[C@@H](O[C@@H](C(N)=O)[C@H]2O[C@@H](n3ccc(=O)[nH]c3=O)[C@H](O)[C@@H]2OC)O1`, the MIC amounted to 25 µg/mL (≈ 44.3 µM).
In turn, `CO[C@H]1[C@@H](O)[C@H](n2ccc(=O)[nH]c2=O)O[C@@H]1[C@@H](O[C@H]1OC(C(=O)Nc2ccc(C)cc2)=C[C@H](O)[C@@H]1O)C(N)=O` had an MIC of 12.5 µg/mL (≈ 22.8 µM).
In turn, `CCCCCCCCCCCCCCNC(=O)C1=C[C@H](O)[C@H](O)[C@@H](O[C@@H](C(N)=O)[C@H]2O[C@@H](n3ccc(=O)[nH]c3=O)[C@H](O)[C@@H]2OC)O1` had an MIC above 50 µg/mL.
Molecule `CO[C@H]1[C@@H](O)[C@H](n2ccc(=O)[nH]c2=O)O[C@@H]1[C@@H](O[C@H]1OC(C(=O)NCCc2ccccc2Cl)=C[C@H](O)[C@@H]1O)C(N)=O` yielded an MIC of 25 µg/mL (≈ 41.9 µM).
`CCCc1ccc(NC(=O)C2=C[C@H](O)[C@H](O)[C@@H](O[C@@H](C(N)=O)[C@H]3O[C@@H](n4ccc(=O)[nH]c4=O)[C@H](O)[C@@H]3OC)O2)cc1` showed an MIC of 12.5 µg/mL (≈ 21.7 µM).

A further experiment concerns the target T1, Phospho-N-acetylmuramoyl-pentapeptide-transferase (Escherichia coli K-12, UniProt P0A6W3).
T1 sequence (P0A6W3 whole entry): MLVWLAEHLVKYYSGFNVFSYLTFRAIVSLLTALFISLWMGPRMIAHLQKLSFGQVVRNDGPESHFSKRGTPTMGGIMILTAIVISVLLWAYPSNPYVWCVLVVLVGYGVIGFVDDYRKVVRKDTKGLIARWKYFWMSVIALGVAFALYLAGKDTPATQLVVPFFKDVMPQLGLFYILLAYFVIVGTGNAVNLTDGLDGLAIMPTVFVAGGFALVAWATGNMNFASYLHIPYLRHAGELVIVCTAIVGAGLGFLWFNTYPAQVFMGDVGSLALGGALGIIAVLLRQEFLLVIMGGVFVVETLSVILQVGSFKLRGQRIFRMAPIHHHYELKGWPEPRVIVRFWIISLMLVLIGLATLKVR
Kind of experiment: Inhibitory activity against translocase I.
`CCCCCCCCCCNC(=O)C1=C[C@H](O)[C@H](O)[C@@H](O[C@@H](C(N)=O)[C@H]2O[C@@H](n3ccc(=O)[nH]c3=O)[C@H](O)[C@@H]2OC)O1`: the pIC50 is 6.36.
In the case of `COc1cc(CNC(=O)C2=C[C@H](O)[C@H](O)[C@@H](O[C@@H](C(N)=O)[C@H]3O[C@@H](n4ccc(=O)[nH]c4=O)[C@H](O)[C@@H]3OC)O2)cc(OC)c1OC`, the pIC50 is 6.18.
In turn, `CO[C@H]1[C@@H](O)[C@H](n2ccc(=O)[nH]c2=O)O[C@@H]1[C@@H](O[C@H]1OC(C(=O)Nc2ccc([N+](=O)[O-])cc2)=C[C@H](O)[C@@H]1O)C(N)=O` showed a pIC50 of 7.16.
Consider `CO[C@H]1[C@@H](O)[C@H](n2ccc(=O)[nH]c2=O)O[C@@H]1[C@@H](O[C@H]1OC(C(=O)Nc2nncs2)=C[C@H](O)[C@@H]1O)C(N)=O`, for which the pIC50 is 6.71.
Still for that read-out and setting: to `CCc1ccccc1NC(=O)C1=C[C@H](O)[C@H](O)[C@@H](O[C@@H](C(N)=O)[C@H]2O[C@@H](n3ccc(=O)[nH]c3=O)[C@H](O)[C@@H]2OC)O1` belongs 7.02; to `CO[C@H]1[C@@H](O)[C@H](n2ccc(=O)[nH]c2=O)O[C@@H]1[C@@H](O[C@H]1OC(C(=O)Nc2nc(C(C)(C)C)cs2)=C[C@H](O)[C@@H]1O)C(N)=O`, 7.60; to `CO[C@H]1[C@@H](O)[C@H](n2ccc(=O)[nH]c2=O)O[C@@H]1[C@@H](O[C@H]1OC(C(=O)NCCc2ccc(Cl)cc2)=C[C@H](O)[C@@H]1O)C(N)=O`, 7.47.
The same measure, in the same setting: next, `CO[C@H]1[C@@H](O)[C@H](n2ccc(=O)[nH]c2=O)O[C@@H]1[C@@H](O[C@H]1OC(C(=O)NCC(c2ccccc2)c2ccccc2)=C[C@H](O)[C@@H]1O)C(N)=O`: 6.69.
On the same count and under the same terms, to `CO[C@H]1[C@@H](O)[C@H](n2ccc(=O)[nH]c2=O)O[C@@H]1[C@@H](O[C@H]1OC(C(=O)NCCN)=C[C@H](O)[C@@H]1O)C(N)=O` belongs 5.92; to `CO[C@H]1[C@@H](O)[C@H](n2ccc(=O)[nH]c2=O)O[C@@H]1[C@@H](O[C@H]1OC(C(=O)NCCc2cccc(Cl)c2)=C[C@H](O)[C@@H]1O)C(N)=O`, 7.47; to `CO[C@H]1[C@@H](O)[C@H](n2ccc(=O)[nH]c2=O)O[C@@H]1[C@@H](O[C@H]1OC(C(=O)NCCCSC)=C[C@H](O)[C@@H]1O)C(N)=O`, 6.89.
On to `COc1ccc(CCNC(=O)C2=C[C@H](O)[C@H](O)[C@@H](O[C@@H](C(N)=O)[C@H]3O[C@@H](n4ccc(=O)[nH]c4=O)[C@H](O)[C@@H]3OC)O2)cc1OC`, for which the pIC50 is 7.40.
In turn, `CO[C@H]1[C@@H](O)[C@H](n2ccc(=O)[nH]c2=O)O[C@@H]1[C@@H](O[C@H]1OC(C(=O)Nc2nccs2)=C[C@H](O)[C@@H]1O)C(N)=O` had a pIC50 of 7.48.
Still for that read-out and setting: next, `CO[C@H]1[C@@H](O)[C@H](n2ccc(=O)[nH]c2=O)O[C@@H]1[C@@H](O[C@H]1OC(C(=O)NC2CCCCCC2)=C[C@H](O)[C@@H]1O)C(N)=O`: 7.31; `CO[C@H]1[C@@H](O)[C@H](n2ccc(=O)[nH]c2=O)O[C@@H]1[C@@H](O[C@H]1OC(C(=O)NC2CCCCC2)=C[C@H](O)[C@@H]1O)C(N)=O`: 7.26; `COc1ccccc1NC(=O)C1=C[C@H](O)[C@H](O)[C@@H](O[C@@H](C(N)=O)[C@H]2O[C@@H](n3ccc(=O)[nH]c3=O)[C@H](O)[C@@H]2OC)O1`: 7.26.
For `CO[C@H]1[C@@H](O)[C@H](n2ccc(=O)[nH]c2=O)O[C@@H]1[C@@H](O[C@H]1OC(C(=O)Nc2ccc(C)cc2)=C[C@H](O)[C@@H]1O)C(N)=O`, the pIC50 is 7.63.
Still for that read-out and setting: to `CCCCCCCCCCCCCCNC(=O)C1=C[C@H](O)[C@H](O)[C@@H](O[C@@H](C(N)=O)[C@H]2O[C@@H](n3ccc(=O)[nH]c3=O)[C@H](O)[C@@H]2OC)O1` belongs below 5.42; to `CO[C@H]1[C@@H](O)[C@H](n2ccc(=O)[nH]c2=O)O[C@@H]1[C@@H](O[C@H]1OC(C(=O)NCCc2ccccc2Cl)=C[C@H](O)[C@@H]1O)C(N)=O`, 7.33; to `CCCc1ccc(NC(=O)C2=C[C@H](O)[C@H](O)[C@@H](O[C@@H](C(N)=O)[C@H]3O[C@@H](n4ccc(=O)[nH]c4=O)[C@H](O)[C@@H]3OC)O2)cc1`, 7.27.

As usually defined, the MIC is the lowest concentration found to suppress growth. A high value points to weaker potency. As usually defined, the pIC50 is −log10 of the IC50, conventionally taken in molar units. Low readings indicate a large IC50, high ones a small IC50.
